Assay results taken from US6486381B1, “Genetically engineered mice containing alterations in the genes encoding retinoic acid receptor proteins” (Institut National de la Sante et de la Recherche Medicale, priority 1993, dated 2002).

Columns and labels:
Assay type in all cases: in vivo, mouse
[1] = test system: wild type and RARβ2 null fetuses; assay: RA-induced limb malformations in wild type and RARβ2 null fetuses; settings: 80 mg/kg in utero at 11.5 dpc, fetuses at 18.5 dpc
Description: For generation of hindbrain malformations timed mating experiments were performed and all-trans RA (Sigma) (25 mg/kg body weight) was administered to the mother by oral gavage at 7.25 dpc. Embryos were collected at 9.0 dpc, yolk sacs were taken for genotyping and embryos were fixed in 4% paraformaldehyde and embedded in paraffin for in situ hybridization on sections. For each embryo, three sets of alternate sections were hybridized to Hoxb-1, Krox-20 and Hoxa-3 probes. These probes have been described previously (Gaunt et al., Development 104 suppl.:71-82 (1988); Wilkinson et al., Nature 337:461-464 (1989); Hunt et al., Nature 353:861-864 (1991)). […] A separate series of embryos was processed for whole-mount in situ hybridization with a digoxigenin-labelled Hoxb-1 riboprobe. Both in situ hybridization procedures were performed as described in Décimo et al. (“In situ Hybridization to Cellular RNA,” in Gene Probes: A Practical Approach, Vol. 2, Hames et al., eds., Oxford University Press, Oxford, England, in press). For induction of limb malformations, all-trans RA was administered at 11.5 dpc (80 mg/kg) and fetuses were collected at 18.5 dpc and analyzed for skeletal malformations. For investigating induction of RARβ2 promoter activity in RARβ2 mutants, 25 mg/kg RA was administered at days 10.5 and 11.5 pc, then embryos were collected and stained for LacZ activity after 4 hours. […]

[2] = test system: wild type and RARβ2 null embryos; assay: RA-induced hindbrain and forebrain alterations in wild type and RARβ2 null embryos (in situ hybridization); settings: 25 mg/kg at 7.25 dpc
Description: For generation of hindbrain malformations timed mating experiments were performed and all-trans RA (Sigma) (25 mg/kg body weight) was administered to the mother by oral gavage at 7.25 dpc. Embryos were collected at 9.0 dpc, yolk sacs were taken for genotyping and embryos were fixed in 4% paraformaldehyde and embedded in paraffin for in situ hybridization on sections. For each embryo, three sets of alternate sections were hybridized to Hoxb-1, Krox-20 and Hoxa-3 probes. These probes have been described previously (Gaunt et al., Development 104 suppl.:71-82 (1988); Wilkinson et al., Nature 337:461-464 (1989); Hunt et al., Nature 353:861-864 (1991)). […] A separate series of embryos was processed for whole-mount in situ hybridization with a digoxigenin-labelled Hoxb-1 riboprobe. Both in situ hybridization procedures were performed as described in Décimo et al. (“In situ Hybridization to Cellular RNA,” in Gene Probes: A Practical Approach, Vol. 2, Hames et al., eds., Oxford University Press, Oxford, England, in press). For induction of limb malformations, all-trans RA was administered at 11.5 dpc (80 mg/kg) and fetuses were collected at 18.5 dpc and analyzed for skeletal malformations. For investigating induction of RARβ2 promoter activity in RARβ2 mutants, 25 mg/kg RA was administered at days 10.5 and 11.5 pc, then embryos were collected and stained for LacZ activity after 4 hours. For whole-mount skeletal analysis, fetuses were collected at 18.5 dpc by ceasarean section and skeletons were prepared as described (Lufkin et al., Nature 359:835-841 (1992)). Histological analysis was as in Lohnes et al. (Cell 73:643-658 (1993)) and lacZ staining as in Mendelsohn et al. (Development 113:723-734 (1991)).
RARβ2+/− intercrosses were set up, and pregnant females were given 25 mg/kg all-trans RA at 7.25 dpc, a dose which is known to produce rhombomeric alterations. […] Hoxb-1 expression was analyzed by whole-mount in situ hybridization.

[3] = test system: wild type, RARγ+/− and RARγ−/− fetuses; assay: RA-induced skeletal malformations in wild type, RARγ+/− and RARγ−/− offspring
Description: For whole mount skeletal analysis, fetuses were collected at day 18.5 p.c. and stored at −20° C. Skeletons were prepared as previously described (Lufkin et al., Nature 359:835-841 (1992)). For histological analysis, fetuses were skinned and then fixed in Bouin's fluid. Paraffin sections, 7 μm thick, were stained with Groat's hematoxylin and Mallory's trichrome. Organs were fixed in 10% formalin, and histological sections, 5 μm thick, were stained with hematoxylin and eosin. RARγ^+/− heterozygote animals were mated overnight and the presence of a vaginal plug at noon the next day considered as day 0.5 p.c. At various times, pregnant females received a single dose of RA dissolved in sunflower seed oil at a final delivery of 100 mg RA per kg animal. […] To determine if any of these malformations could be mediated by RARγ, pregnant dams from heterozygote crosses were treated with RA at day 8.5 or 9.0 p.c., and we examined day 18.5 p.c. fetuses for skeletal malformations. […] Comparison of RA-induced skeletal malformations in wild type, RARγ^+/− and RARγ^−/− offspring. […] Skeletons were prepared, and malformations scored under a dissecting microscope. Where possible, fetuses from the same litter were compared.

RARα1 null homozygotes = assay: RA-induced malformations in RARα1 null homozygotes; settings: RA at days 8.5-9.0 p.c.
RARγ2−/− animals = assay: RA-induced skeletal malformations in RARγ2−/− animals; settings: RARγ2−/− animals versus control littermates, identical conditions
[4] = RA 100 mg/kg single dose to dam at day 8.5 p.c., RARγ +/+ fetuses, day 18.5 p.c.
[5] = RA 100 mg/kg single dose to dam at day 8.5 p.c., RARγ +/− fetuses, day 18.5 p.c.
[6] = RA 100 mg/kg single dose to dam at day 8.5 p.c., RARγ −/− fetuses, day 18.5 p.c.
[7] = RA 100 mg/kg single dose to dam at day 9.0 p.c., +/−, fetuses day 18.5 p.c.
[8] = RA 100 mg/kg single dose to dam at day 9.0 p.c., RARγ +/− fetuses, day 18.5 p.c.
[9] = RA 100 mg/kg single dose to dam at day 9.0 p.c., RARγ −/− fetuses, day 18.5 p.c.

nature or extent of the limb malformations, wild type versus RARβ2 null fetuses [1]: no apparent differences
limb malformations (truncated long bones, missing digits) ([1]; wild type and RARβ2 null, compared to untreated): severely malformed limbs
Hoxa-3 expression pattern ([2]; embryos collected at 9.0 dpc): No significant alteration
forebrain truncation ([2]; observed at 9.0-9.5 dpc, wild-type and RARβ2 null embryos): Severe truncations of the forebrain
Krox-20 transcripts (in situ hybridization) ([2]; RA-treated embryos): not detected in the putative R3
Caudal truncations [3, 4]: 11 (100%) fetuses (%)
Craniofacial malformations [3, 4]: 11 (100%) fetuses (%)
Degenerate ribs [3, 4]: 10 (91%) fetuses (%)
Homeotic transformations: 8 vertebrosternal ribs (T8 → T7) [3, 4]: 7 (64%) fetuses (%)
Homeotic transformations: 14 or 15 ribs (L → T) [3, 4]: 6 (54%) fetuses (%)
Caudal truncations [3, 5]: 13 (81%) fetuses (%)
Craniofacial malformations [3, 5]: 16 (100%) fetuses (%)
Degenerate ribs [3, 5]: 6 (38%) fetuses (%)
Homeotic transformations: 8 vertebrosternal ribs (T8 → T7) [3, 5]: 8 (50%) fetuses (%)
Homeotic transformations: 14 or 15 ribs (L → T) [3, 5]: 14 (87%) fetuses (%)
Malformed lumbar/sacral vertebrae [3, 5]: 3 (19%) fetuses (%)
Caudal truncations [3, 6]: 0 (0%) fetuses (%)
Craniofacial malformations [3, 6]: 10 (100%) fetuses (%)
Degenerate ribs [3, 6]: 0 (0%) fetuses (%)
Homeotic transformations: 8 vertebrosternal ribs (T8 → T7) [3, 6]: 6 (50%) fetuses (%)
Homeotic transformations: 14 or 15 ribs (L → T) [3, 6]: 7 (70%) fetuses (%)
Homeotic transformations: Number of lumbar vertebrae: 5 [3, 6]: 1 (10%) fetuses (%)
Homeotic transformations: Number of lumbar vertebrae: 6 [3, 6]: 9 (90%) fetuses (%)
Homeotic transformations: Number of lumbar vertebrae: 7 [3, 6]: 0 (0%) fetuses (%)
Malformed lumbar/sacral vertebrae [3, 6]: 0 (0%) fetuses (%)
Caudal truncations [3, 7]: 13 (100%) fetuses (%)
Craniofacial malformations [3, 7]: 13 (100%) fetuses (%)
Degenerate ribs [3, 7]: 0 (0%) fetuses (%)
Homeotic transformations: 8 vertebrosternal ribs (T8 → T7) [3, 7]: 7 (54%) fetuses (%)
Homeotic transformations: 14 or 15 ribs (L → T) [3, 7]: 7 (54%) fetuses (%)
Caudal truncations [3, 8]: 14 (58%) fetuses (%)
Craniofacial malformations [3, 8]: 24 (100%) fetuses (%)
Degenerate ribs [3, 8]: 0 (0%) fetuses (%)
Homeotic transformations: 8 vertebrosternal ribs (T8 → T7) [3, 8]: 9 (38%) fetuses (%)
Homeotic transformations: 14 or 15 ribs (L → T) [3, 8]: 8 (33%) fetuses (%)
Malformed lumbar/sacral vertebrae [3, 8]: 10 (42%) fetuses (%)
Caudal truncations [3, 9]: 0 (0%) fetuses (%)
Craniofacial malformations [3, 9]: 18 (100%) fetuses (%)
Degenerate ribs [3, 9]: 0 (0%) fetuses (%)
Homeotic transformations: 8 vertebrosternal ribs (T8 → T7) [3, 9]: 11 (61%) fetuses (%)
Homeotic transformations: 14 or 15 ribs (L → T) [3, 9]: 11 (61%) fetuses (%)
Homeotic transformations: Number of lumbar vertebrae: 5 [3, 9]: 1 (7%) fetuses (%)
Homeotic transformations: Number of lumbar vertebrae: 6 [3, 9]: 15 (83%) fetuses (%)
Homeotic transformations: Number of lumbar vertebrae: 7 [3, 9]: 3 (16%) fetuses (%)
Malformed lumbar/sacral vertebrae [3, 9]: 0 (0%) fetuses (%)
lumbar to thoracic, sacral to lumbar and lumbar to sacral vertebral transformations ([3]; RA-treated RARγ null homozygotes): also occurred
RA-induced truncations ([3]; RARγ heterozygotes, RA at day 8.5 p.c.): partially resistant
spina bifida, truncation of the axial skeleton in the post-thoracic region, degenerate or fused ribs, disorganized vertebral centres or malformed neural arches ([3]; RARγ−/− embryos exposed to RA at day 8.5 p.c.): none
truncations and associated defects ([3]; RARγ−/− littermates, RA at day 9.0 p.c.): never observed
resistance to RA-induced malformations (lumbosacral truncations) (RARα1 null homozygotes): not observed
SMILES: CC1=C(/C=C/C(C)=C/C=C/C(C)=C/C(=O)O)C(C)(C)CCC1 [RA, retinoic acid]
Hoxb-1 expression (in situ hybridization) ([2]; wild type and RARβ2 null mutants): rostral expansion of the Hoxb-1 transcript domain
lumbo-sacral vertebral malformations, including fusion of the neural arches and disorganized vertebral centres ([3]; RARγ+/− animals, RA-treated): always exhibited lumbo-sacral vertebral malformations
truncations and associated defects ([3]; WT embryos, RA at day 9.0 p.c. compared to day 8.5 p.c.): progressively more posterior truncations and associated defects
spina bifida, truncation of the axial skeleton in the post-thoracic region, degenerate or fused ribs, disorganized vertebral centres or malformed neural arches ([3]; WT fetuses exposed to RA at day 8.5 p.c.): All WT fetuses exhibited these malformations
type and frequency of RA-induced malformations (RARγ2−/− animals): same type and frequency of RA-induced malformations as control littermates
